The values below come from publication PMC8344022, “Small-molecule inhibitor of AF9/ENL-DOT1L/AF4/AFF4 interactions suppresses malignant gene expression and tumor growth” (Theranostics, 2021).

One series deals with MV4;11 cells. Briefly: Antiproliferation assay (XTT). The format is cell-based. The conditions noted are these: 14-day incubation, read-out: Cytotoxicity EC50. The method, then: (§1) Antiproliferation assay. Proliferation inhibition assays for suspension blood cancer cells were performed using an XTT assay kit (Roche). Proliferation inhibition assays for solid tumor cell lines MCF-7, MDA-MB-231, Panc1, Panc28 were performed using an MTT assay (Sigma). The antiproliferation EC50 values were determined using Prism 5 and the reported results were the mean values of at least three independent experiments. The incubation time for compound 1 was 7 days and that for EPZ4777 was 14 days.
(Tetrazolium assays rely on reduction of a dye to a coloured formazan, in cell work by metabolically active cells.)

A further series concerns Molm-13 cells. Briefly: Antiproliferation assay (XTT). Format: cell-based. The conditions noted are these: 14-day incubation, read-out: Cytotoxicity EC50. The method, then: as §1
Another series relates to RPMI-8226 cells. Briefly: Antiproliferation assay (XTT). The format is cell-based. The note with it: 14-day incubation, read-out: Cytotoxicity EC50. The method, then: as §1
Another series concerns U266 cells. Briefly: Antiproliferation assay (XTT). The format is cell-based. The conditions noted are these: 14-day incubation, read-out: Cytotoxicity EC50. On the procedure: as §1
A further series has as its system MCF-7 cells. Briefly: Antiproliferation assay (MTT). The conditions noted are these: 14-day incubation, read-out: Cytotoxicity EC50. The format is cell-based. On the procedure:
as §1

The test system of the next series is MDA-MB-231 cells. Briefly: Antiproliferation assay (MTT). Format: cell-based. The conditions noted are these: 14-day incubation, read-out: Cytotoxicity EC50. The method, then: as §1
The next series concerns Panc-1 cells. The series can be described thus: Antiproliferation assay (MTT). The format is cell-based. The note with it: 14-day incubation, read-out: Cytotoxicity EC50. The method, then: as §1
For a further series, the system named is Panc-28 cells. The series can be described thus: Antiproliferation assay (MTT). The format is cell-based. The conditions noted are these: 14-day incubation, read-out: Cytotoxicity EC50. The method, then:
as §1

For series [1], the system named is nuclear protein levels in Molm-13 cells. The series can be described thus: Western blot of nuclear proteins. The format is cell-based. The conditions noted are these: 3 days. The method, then:
Next, we investigated how compound 1 affects these transcription cofactors in the nucleus, where they regulate gene expression. […] DOT1L inhibitor EPZ4777 [25] reduced the methylation levels of H3K79, but not other proteins (Figure 3B). […] In this regard, despite lack of activity against DOT1L, compound 1 can mimic EPZ4777 to reduce H3K79 methylation.
Western blot. 3x10^6 cells/well were treated with increasing concentrations of a compound for 3 days and nuclear proteins extracted with the EpiQuik Nuclear Extraction Kit (Epigentek) according to the manufacturer's protocol. Equal amounts of proteins were separated on SDS-PAGE and transferred to PVDF membranes. The blots were probed with primary antibodies, followed by anti-rabbit or anti-mouse IgG (Thermo Scientific) secondary antibodies. The primary antibodies used in this research were MBP Mouse mAb (#2396, Cell signaling), DOT1L Rabbit mAb (#77087, Cell signaling), MLL-N Rabbit mAb (#14689, Cell signaling), ENL Rabbit mAb (#14893, Cell signaling), Di-Methyl-Histone H3K79 Rabbit mAb (#5427, Cell signaling), Mono-Methyl-Histone H3K79 Rabbit mAb (#9398, Cell signaling), Histone H3 Rabbit mAb (#4499, Cell signaling), AF4 Rabbit pAb (#NBP1-28705, Novusbio) and AFF4 Rabbit pAb (#ab103586, Abcam).
For orientation: In western blotting, separated proteins are transferred to a membrane and probed.

Series [2] concerns HoxA9, Meis1 and Myc expression in MV4;11 cells. The series can be described thus: qPCR of MLL target genes. The format is cell-based. The note with it: 4 days. On the procedure: (§2) Next, compound 1 was tested for its ability to change expression of characteristic MLL-r leukemia genes HoxA9, Meis1 and Myc. Myc is also overexpressed in a broad range of AML and other cancers. […] (Figure S5), presumably because SEC is not recruited there.
(§3) RNA extraction and Quantitative real-time PCR (qPCR). 10^5 cells/ml were incubated with a compound for 4 days and the RNA was extracted using RNeasy mini kit (#74104, Qiagen). 100-1000 ng of total RNA was reverse transcribed using iScript™ Reverse Transcription Supermix (Bio-Rad) using the manufacturer's protocol. Quantitative real-time PCR was carried out using Fast SYBR Green Master Mix (Applied Biosystems) according to the manufacturer's instructions. Measurements were performed in triplicate, using GAPDH as the reference gene. Real-time PCR was performed using Biosystems Step One Plus detection system. The following sequences of primers are used: […]
In general terms: In qPCR the cycle at which signal appears reflects the starting amount.

In series [3] the test system is HoxA9, Meis1 and Myc expression in Molm-13 cells. The series can be described thus: qPCR of MLL target genes. Format: cell-based. The conditions noted are these: 4 days. On the procedure: as §2, §3
Series [4] relates to H3K79me2 at gene promoters in Molm-13 cells. The series can be described thus: Chromatin immunoprecipitation (ChIP)-qPCR. Format: cell-based. The note with it: 2 μM. On the procedure: as §2
Chromatin immunoprecipitation. […] Cells were lysed with nuclear lysis buffer and sonicated to ~100-1000 bp fragments, which was incubated at 4 °C overnight with the H3K79me2 antibody (#5427, Cell signaling) and IgG (C15410206, Diagenode). Protein A/G Magnetic Beads (10 µL, Novus Biologicals) were added and incubated for 2 h. The beads were washed 3x with RIPA buffer and 2x with TE buffer. DNA on the beads was eluted for 2 hours at 68 °C in 100 μL of an elution buffer (20 mM Tris pH 7.5, 5 mM EDTA, 50 mM NaCl, 1% SDS, 50 μg/ml proteinase K) (2x), and purified using a ChIP DNA Clean & Concentrator kit (Novus Biologicals). qPCR was done using the method described above.

The subject of a further series is THP-1 cells. Also noted: method as in earlier work. The note with it: read-out: Cytotoxicity EC50; cited from earlier work.
For another series, the system named is HL60 cells. Also noted: method as in earlier work. The conditions noted are these: read-out: Cytotoxicity EC50; cited from earlier work.
Another series concerns Kasumi-1 cells. Also noted: method as in earlier work. The conditions noted are these: read-out: Cytotoxicity EC50; cited from earlier work.
A further series relates to Jurkat cells. Further details: method as in earlier work. The note with it: read-out: Cytotoxicity EC50; cited from earlier work.

With `CC(C)N(CCCNC(=O)Nc1ccc(C(C)(C)C)cc1)C[C@H]1O[C@@H](n2ccc3c(N)ncnc32)[C@H](O)[C@@H]1O` [EPZ4777, reference compound], the EC50 was 1.1 ± 0.3 µM in the series with MV4;11 cells; 1.2 ± 0.2 µM with Molm-13 cells; over 50 µM in the series with RPMI-8226 cells; over 50 µM in the series on U266 cells; over 50 µM with MCF-7 cells; over 50 µM with MDA-MB-231 cells. In addition, the EC50 with Panc-1 cells is over 50 µM; with Panc-28 cells it was over 50 µM; in the series with THP-1 cells it was 3.4 µM; in the series on HL60 cells, over 50 µM; in the series with Kasumi-1 cells, 33 µM; in the series on Jurkat cells it was over 50 µM. For the same compound, in series [1], the “Nuclear levels of DOT1L, H3K79me1 and me2, ENL and AFF4” value was “only reduced those of H3K79me1 and me2, but not other proteins”. The “Expression of MLL target genes HoxA9, Meis1 and Myc” value in series [2] and in series [3] was “behaved similarly” in each case. The “H3K79me2 in the gene promoters of HoxA9 and Myc” value in series [4] was “decreased levels of H3K79me2”.

As usually defined, the EC50 is the concentration at which the effect is half-maximal.
